Like-named read-outs stand apart in the source and are kept apart here.
Columns and labels:
human 5-HT2A receptor = human 5-HT2A receptor (Homo sapiens, UniProt P28223); assay: Human 5-HT2A functional FLIPR assay (agonist mode); assay type: cell-based; parameters: expressed in transfected cells; host or cells: HTR2A&Gα15-HEK293 (tetracycline induction)
Method: The potential excitatory effects of compounds targeting on human 5-hydroxytryptamine receptor 2A (5-HT2A) under agonist mode was assessed.
HTR2A&Gα15-HEK293 cells were cultured in DMEM medium containing 10% dialyzed FBS and 1×penicillin-streptomycin, 100 μg/mL Hygromycin B and 300 μg/mL G418. The cells were passaged about three times a week, maintained between ˜30% to ˜90% confluence.
1. The cell culture medium (DMEM medium containing 10% dialyzed FBS and 1×penicillin-streptomycin, 100 μg/mL Hygromycin B and 300 μg/mL G418), TrypLE™ Express and DPBS to R.T. was warmed in advance.
2. For induction, 1 μg/ml tetracycline (final concentration) was added to cell culture medium and incubated for 48 hours prior to seeding cells into plate at 37° C., 5% (v/v) C02. The cell culture medium was removed from flask. Cells were washed with DPBS.
3. 2 mL TrypLE™ Express was added to the flask, mixed well by gentle shaking and cells were incubated at 37° C. for a few minutes.
4. The cells were checked for morphological change under microscope, the digestion was stopped by adding 4 mL cell culture medium to the flask when most of cells turned to round.
5. The cell suspension was transferred into a 15 mL centrifuge tube, and then centrifuged at 1,200 rpm for 5 minutes.
6. The supernatant was removed. The cell pellet was resuspended with 2 mL cell culture medium.
7. The cell density was counted using cell counter.
9. 30 μL/well cell suspensions added into a 384-well cell plate (The cell density was 20,000 cells/well).
10. The cell plate was incubated overnight at 37° C., 5% (v/v) CO2.
On the day of experiments, culture medium was removed from the cell plate.
10 μL of assay buffer (20 mM HEPES, in 1x HBSS, pH 7.4) was added to each well of the cell plate.
2×dye solution was prepared following the manual of the F LIP R® Calcium 6 Assay Kit: • i. The dye was diluted with assay buffer. • ii. Probenecid was added to the final concentration of 5 mM. • iii. Vortexed vigorously for I-2 minutes.
4. 10 μL of 2x dye solution was added to each well of the cell plate.
5. The cell plate was placed on plate shaker, followed by shaking at 600 rpm for 2 minutes.
6. The plate was incubated at 37° C. for 2 hours followed by an additional 15-minute incubation at 25° C.
1. Serotonin HCl was prepared to the concentration of 10 mM with DMSO.
2. The test compounds were prepared to the concentration of 10 mM with DMSO.
3. The compounds were added to a 384-well compound source plate.
4. 3-folds serial dilutions were performed with DMSO.
5. 90 nL/well of serial diluted compounds was transferred from source plate to a 384-well compound plate by using an Echo.
6. 30 μL/well of assay buffer (20 mM HEPES in 1x HBSS, pH 7.4) was added to the compound plate.
7. The plate was mixed on-plate shaker for 2 minutes.
1. After the cells were incubated with dye solution, the cell plate, compound plate containing 3×compounds and F LIP R tips were placed into F LIP R.
2. 10 μL of 3×compounds transferred from the compound plate to the cell plate by FLIP R.
3. The plate was read for 160 sec with 1 sec interval and the data of agonist mode was obtained.
1. The normalized fluorescence reading (RFU) was calculated as shown below, wherein F max and F min stand for maximum and minimum of calcium signal during defined time window:
2. EC50 by fitting R F U against log of compound concentrations with Hill equation was calculated using XLfit.
The potential excitatory effects of compounds targeting human 5-hydroxytryptamine receptor 2A (5-HT2A) under agonist mode was assessed.
2. For induction, 1 μg/ml tetracycline (final concentration) was added to cell culture medium and incubated for 48 hours prior to seeding cells into plate at 37° C., 5% (v/v) CO2. The cell culture medium was removed from flask. Cells were washed with DPBS.
1. On the day of experiments, culture medium was removed from the cell plate.
2. 10 μL of assay buffer (20 mM HEPES, in 1×HBSS, pH 7.4) was added to each well of the cell plate.

5-HT2B receptor = 5-HT2B receptor (Homo sapiens, UniProt P41595); assay: Human 5-HT2B radioligand binding assay ([3H]-LSD); parameters: host or cells: cell membrane, dosed as 1 unit/well
Chain of 5-HT2B receptor (P41595 whole entry): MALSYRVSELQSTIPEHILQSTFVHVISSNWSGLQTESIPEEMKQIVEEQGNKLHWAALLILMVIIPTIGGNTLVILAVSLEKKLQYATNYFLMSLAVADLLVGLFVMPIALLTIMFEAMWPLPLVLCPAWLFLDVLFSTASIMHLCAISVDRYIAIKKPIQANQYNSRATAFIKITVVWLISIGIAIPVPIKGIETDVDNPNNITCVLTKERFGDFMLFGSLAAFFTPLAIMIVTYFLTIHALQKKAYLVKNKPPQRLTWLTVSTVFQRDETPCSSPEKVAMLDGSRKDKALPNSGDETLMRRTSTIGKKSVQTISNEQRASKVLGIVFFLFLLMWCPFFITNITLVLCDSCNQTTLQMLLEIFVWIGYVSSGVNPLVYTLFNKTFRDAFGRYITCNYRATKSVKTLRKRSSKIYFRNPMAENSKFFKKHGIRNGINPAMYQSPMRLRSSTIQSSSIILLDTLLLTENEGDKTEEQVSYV
Method: The objective of this study was to evaluate the binding properties of test compounds on 5-HT2B.
1) The assay buffer was prepared following Table 25-below.
2) Eight doses of reference and test compounds starting from 10 mM stock solution as requested by 5-fold serial dilutions with 100% (v/v) DMSO.
3) UniFilter-96 GF/B plate was pretreated: • a. 50 μl/well of 0.5% (v/v) PEI to UniFilter-96 G F/B plates. The plates were sealed and incubated at 4° C. for 3 hrs. • b. After incubation, the plates were washed 3 times with ice-cold wash buffer (50 mM Tris, pH7.4).
4) Assay plate preparation: • a. Cell membrane was diluted with assay buffer and 330 μl/well added to 96 round deep well plates to reach a concentration of 1 unit/well. • b. Eight concentrations of reference or test compounds were prepared and 110 μl/well added to 96 round deep well plates. • c. [3H]-LSD was diluted with assay buffer to 5 nM (5×final concentration) and 110 μl/well was added to 96 round deep well plates.
5) The plate was centrifuged at 1000 rpm for 30 secs and then agitate at 600 rpm, R.T. for 5 min.
6) The plates were sealed and incubated at 37° C. for 90 min.
7) The incubation was stopped by vacuum filtration onto GF/B filter plates followed by 4 times washing with ice-cold wash buffer (50 mM Tris, pH7.4).
9) The filter plates were sealed and 40 μl/well of scintillation cocktail was added.
10) The plate was read using a Microbeta2 microplate counter.
(§1) For reference and test compounds, the results are expressed as % Inhibition, using the normalization equation: N=100-100x(U-C2)/(C1-C2), where U is the unknown value, Cl is the average of high controls, and C2 is the average of low controls. The IC50 is determined by fitting percentage of inhibition as a function of compound concentrations with Hill equation using XLfit.
1) The assay buffer was prepared following Table 54 below.
7) The incubation was stopped by vacuum filtration onto G F/B filter plates followed by 4 times washing with ice-cold wash buffer (50 mM Tris, pH7.4).
as §1, with “N=100−100×(U−C2)/(C1−C2),” for “N=100-100x(U-C2)/(C1-C2),”, “C1” for “Cl”

[1] = FLIPR calcium, agonist mode, HTR2A&Gα15-HEK293 cells (Table 39), read-out: h5-HT2A, EC50

Chain of human 5-HT2A receptor (P28223 whole entry): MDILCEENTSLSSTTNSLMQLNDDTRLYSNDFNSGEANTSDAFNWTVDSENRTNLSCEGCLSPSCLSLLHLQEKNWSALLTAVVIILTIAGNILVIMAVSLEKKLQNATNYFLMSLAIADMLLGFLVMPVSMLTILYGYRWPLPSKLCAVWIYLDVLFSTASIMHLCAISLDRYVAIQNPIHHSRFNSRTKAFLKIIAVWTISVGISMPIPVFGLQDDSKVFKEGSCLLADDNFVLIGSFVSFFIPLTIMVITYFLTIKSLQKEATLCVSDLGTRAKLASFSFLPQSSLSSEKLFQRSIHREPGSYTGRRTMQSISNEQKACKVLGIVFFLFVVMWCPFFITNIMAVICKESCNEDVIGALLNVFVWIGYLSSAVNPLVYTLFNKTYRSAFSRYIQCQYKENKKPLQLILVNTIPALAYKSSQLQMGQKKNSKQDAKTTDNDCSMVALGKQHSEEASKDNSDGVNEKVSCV

Compound | RFU@10 μM (human 5-HT2A receptor; RFU=Fmax−Fmin (Table 39)) | EC50 (human 5-HT2A receptor) | IC50 (5-HT2B receptor) | Ki (5-HT2B receptor) | RFU@10 μM (human 5-HT2A receptor; RFU=Fmax−Fmin (Table 9)) | also measured
COc1ccc2[nH]cc(CCN3CC[C@@H](OC)C3)c2c1 [(R) I-66, (R)-5-methoxy-3-(2-(3-methoxypyrrolidin-1-yl)ethyl)-1H-indole] | 752 RFU | – | – | – | – | –
COc1ccc2[nH]cc(CCN3CC[C@@H](OC(F)F)C3)c2c1 [(R) I-67, (R)-3-(2-(3-(Difluoromethoxy)pyrrolidin-1-yl)ethyl)-5-methoxy-1H-indole] | 225 RFU | – | – | – | – | –
COc1ccc2[nH]cc(CCN3CC[C@H](OC(F)F)C3)c2c1 [(S) I-67, (S)-3-(2-(3-(Difluoromethoxy)pyrrolidin-1-yl)ethyl)-5-methoxy-1H-indole] | 2,147 RFU | 994 nM | – | – | – | –
[2H]C([2H])([2H])N(CCc1c[nH]c2ccc(SC)cc12)C([2H])([2H])[2H] [Compound I-1, N,N-Bis(methyl-d3)-2-(5-(methylthio)-1H-indol-3-yl)ethan-1-amine] | – | 45 nM | 74.5 nM | 38.6 nM | 7,177 RFU | –
CCN(CC)CCc1c[nH]c2ccc(SC)cc12 [Compound I-12, N,N-Diethyl-2-(5-(methylthio)-1H-indol-3-yl)ethan-1-amine] | – | 77 nM | 451 nM | 233 nM | 1,041 RFU | –
CCN(C)CCc1c[nH]c2ccc(SC)cc12 [Compound I-13, N-Ethyl-N-methyl-2-(5-(methylthio)-1H-indol-3-yl)ethan-1-amine] | – | 18 nM | 64 nM | 33.1 nM | 726 RFU | –
CSc1ccc2[nH]cc(CCN(C(C)C)C(C)C)c2c1 [Compound I-17, N-Isopropyl-N-(2-(5-(methylthio)-1H-indol-3-yl)ethyl)propan-2-amine] | – | 37 nM | 221 nM | 114 nM | 8,546 RFU | –
CSc1ccc2[nH]cc(CCN(C)C(C)C)c2c1 [Compound I-19, N-Methyl-N-(2-(5-(methylthio)-1H-indol-3-yl)ethyl)propan-2-amine] | – | 33 nM | 276 nM | 143 nM | 819 RFU | –
COc1ccc2[nH]cc(CCN(C)CCOC(F)F)c2c1 [Compound I-71, 2-(Difluoromethoxy)-N-(2-(5-methoxy-1H-indol-3-yl)ethyl)-N-methylethan-1-amine] | 1,094 RFU | – | – | – | – | IC50 (5-HT2B receptor; [3H]-LSD displacement (Table 55), read-out: 5-HT2B, IC50): 171 nM; Ki (5-HT2B receptor; [3H]-LSD displacement (Table 55), read-out: 5-HT2B, Ki): 88.6 nM; EC50 (human 5-HT2A receptor; [1]): 257 nM
CN(C)CCc1c[nH]c2ccc(OCCOC(F)F)cc12 [Compound I-128, 2-(5-(2-(Difluoromethoxy)ethoxy)-1H-indol-3-yl)-N,N-dimethylethan-1-amine] | 2,159 RFU | 1210 nM | – | – | – | –
CN(CCOC(F)F)CCc1c[nH]c2ccccc12 [Compound I-130, N-(2-(1H-Indol-3-yl)ethyl)-2-(difluoromethoxy)-N-methylethan-1-amine] | 247 RFU | – | – | – | – | –
CN(C)CCc1c[nH]c2ccccc12 [DMT] | 3,493 RFU | – | – | – | 3,493 RFU | EC50 (human 5-HT2A receptor; FLIPR calcium, agonist mode, HTR2A&Gα15-HEK293 cells (Table 9), read-out: h5-HT2A, EC50): 163 nM; EC50 (human 5-HT2A receptor; [1]): 163 nM
